US7919460B2, “Method for prophylaxis of reflex sympathetic dystrophy after stroke” (Asahi Kasei Pharma Corporation, priority 2006, dated 2011)

What was measured:
[1] = system: patients with hemiplegia attributed to cerebrovascular disease (stroke) who developed RSD (shoulder-hand syndrome); assay: Test of treatment of post-stroke RSD (therapeutic administration after onset); assay type: in vivo, humans; settings: therapeutic administration group (11 patients), at completion of administration
Protocol: EL was administered after the onset of RSD (shoulder-hand syndrome) in the same use and dose as in Example 1 to 11 patients with hemiplegia attributed to cerebrovascular disease (stroke) at Brunnstrom stage III or lower in either the upper limb or a finger on admission, who developed RSD (shoulder-hand syndrome). These patients were classified into a therapeutic administration group. On the other hand, the EL administration group of Example 1 was compared as a control (preventive administration group) with the therapeutic administration group.

[2] = system: patients with hemiplegia attributed to cerebrovascular disease (stroke), onset of RSD (shoulder-hand syndrome); assay: Test of prevention of onset of post-stroke RSD; assay type: in vivo, humans
Text: Test subjects were 33 patients with hemiplegia attributed to cerebrovascular disease (stroke) at Brunnstrom stage III or lower in either the upper limb or a finger on admission. Patients already developing RSD (shoulder-hand syndrome) on admission and patients with pain in the shoulder joint or swollen paralyzed limbs were excluded from the test. […] On the other hand, 21 test subjects were classified into a rehabilitation alone group (control group) and compared with the EL administration group. Physical therapy and therapeutic exercise, occupational therapy, and the management of the paralyzed limbs were performed thoroughly in all the cases. […] EL administration was initiated 11 to 59 days after an attack of stroke (25.8 days on average) and continued until 5 months after the attack of stroke. The same observation period was applied to the control group. The test subjects were diagnosed as developing RSD (shoulder-hand syndrome) if they had diffuse pain not localized to the shoulder joint, edema involving skin color changes, skin temperature abnormalities, and range of motion limitations, and the practice of their rehabilitation was restricted. These criteria agreed to Veldmnan's diagnostic criteria or diagnostic criteria for CRPS-type 1 provided by the International Association for the Study of Pain.
Activities of daily living (ADL) were evaluated on the basis of the Barthel Index (BI) and the range of motion (ROM) of shoulder joint. The movable range of shoulder joint (also referred to as “shoulder ROM”) was regarded as restricted (Shoulder-ROM-restrictions were present.) if either abduction or flexion was restricted in measurement. The test subjects were also examined for sensory impairment, aphasia, and unilateral spatial neglect on admission.
Statistical analysis was conducted with unpaired t-test, Fisher's exact test or Wilcoxon test, and 5% or lower significance level was regarded as being significant.

[3] = system: RSD triggered and developed by a trauma or surgical invasion; settings: clinical, literature; cited from earlier work
[4] = in vivo; cited from earlier work
[5] = EL preventive administration group (12 cases), 20 units i.m. once a week until 5 months after stroke

1-butyric acid-7-(L-2-aminobutyric acid)-26-L-aspartic acid-27-L-valine-29-L-alanine-calcitonin [elcatonin]
No RSD, the number of persons [1]: 0 | Incidence converted to incidence in all patients with hemiplegia attributed to stroke in the facility ([2]; EL administration group): approximately 1.3% | Incidence of RSD ([2]; EL administration initiated within 48 days after stroke): 0% | The number of test subjects developing post-stroke RSD: Developed [2, 5]: 1 | The number of test subjects developing post-stroke RSD: Not developed [2, 5]: 11 | Incidence of RSD (cases developed RSD) ([2]; EL preventive administration group, 12 cases): 8.3% | Incidence of RSD until discharge versus unadministered patient group ([2]; repetitive administration to stroke hemiplegia patients without RSD on admission): suppressed significantly and remarkably

O=C1O[C@H]([C@@H](O)CO)C(O)=C1O [vitamin C]
Preventive effect on the initial onset of RSD after trauma or surgical invasion [3]: preventive effect

salmon calcitonin
Dose of oral administration agent relative to dose of drip infusion in vein [4]: approximately 60 times
